ChEMBL document CHEMBL3872201, “Synthesis and antiproliferative activity of a natural like glycoconjugate polycyclic compound” (2016)
Calls of active or inactive are those of the source. No cut-off for these calls is given here.

Columns and labels:
[1] = Antiproliferative activity against human SK-MEL-2 cells after 48 hrs by sulforhodamine B assay; assay type: functional; settings: SK-MEL-2, 48 h
[2] = Cytotoxicity against human MDA-MB-231 cells assessed as inhibition of cell viability at 10 uM after 24 hrs by MTT assay relative to control; assay type: functional; settings: MDA-MB-231, 24 h
[3] = Antiproliferative activity against human KM12 cells after 48 hrs by sulforhodamine B assay; assay type: functional; settings: KM12, 48 h
[4] = Cell cycle arrest in human MDA-MB-231 cells assessed as accumulation at subG0/G1 phase at 5 uM after 72 hrs by propidium iodide staining based flow cytometric analysis (reference value: 6.3%); assay type: functional
[5] = Antiproliferative activity against human MDA-MB-435 cells after 48 hrs by sulforhodamine B assay; assay type: functional; settings: MDA-MB-435, 48 h
[6] = Antiproliferative activity against human HCT15 cells after 48 hrs by sulforhodamine B assay; assay type: functional; settings: HCT-15, 48 h
[7] = Cell cycle arrest in human MDA-MB-231 cells assessed as accumulation at G2/M phase at 5 uM after 72 hrs by propidium iodide staining based flow cytometric analysis (reference value: 19.7%); assay type: functional
[8] = Antiproliferative activity against human MALME-3M cells after 48 hrs by sulforhodamine B assay; assay type: functional
[9] = tested on: MDA-MB-231; experiment: Cytotoxicity against human MDA-MB-231 cells assessed as inhibition of cell viability at 5 to 10 uM up to 72 hrs by MTT assay; assay type: functional, cell-based
[10] = Antiproliferative activity against human NCI-ADR-RES cells after 48 hrs by sulforhodamine B assay; assay type: functional
[11] = Antiproliferative activity against human NCI-H460 cells after 48 hrs by sulforhodamine B assay; assay type: functional; settings: NCI-H460, 48 h
[12] = Cell cycle arrest in human MDA-MB-231 cells assessed as accumulation at G2/M phase at 5 uM after 24 hrs by propidium iodide staining based flow cytometric analysis (reference value: 20.4%); assay type: functional
[13] = Cell cycle arrest in human MDA-MB-231 cells assessed as accumulation at G0/G1 phase at 5 uM after 72 hrs by propidium iodide staining based flow cytometric analysis (reference value: 69.3%); assay type: functional
[14] = Antiproliferative activity against human K562 cells after 48 hrs by sulforhodamine B assay; assay type: functional; settings: K562, 48 h
[15] = tested on: MDA-MB-231; experiment: Cytotoxicity against human MDA-MB-231 cells assessed as reduction in cell number at 5 to 10 uM after 24 to 72 hrs by light microscopic analysis; assay type: functional, cell-based
[16] = Antiproliferative activity against human RXF393 cells after 48 hrs by sulforhodamine B assay; assay type: functional; settings: RXF 393, 48 h
[17] = Antiproliferative activity against human SK-MEL-5 cells after 48 hrs by sulforhodamine B assay; assay type: functional; settings: SK-MEL-5, 48 h
[18] = Antiproliferative activity against human COLO205 cells after 48 hrs by sulforhodamine B assay; assay type: functional; settings: COLO 205, 48 h
[19] = Antiproliferative activity against human OVCAR4 cells after 48 hrs by sulforhodamine B assay; assay type: functional; settings: OVCAR-4, 48 h
[20] = tested on: MDA-MB-231; experiment: Effect on cell cycle regulatory protein in human MDA-MB-231 cells assessed as p21 level at 5 uM after 48 hrs by Western blot analysis relative to control; assay type: functional
[21] = Antiproliferative activity against human NCI-H23 cells after 48 hrs by sulforhodamine B assay; assay type: functional; settings: NCI-H23, 48 h
[22] = Antiproliferative activity against human A549/ATCC cells after 48 hrs by sulforhodamine B assay; assay type: functional; settings: A549, 48 h
[23] = Antiproliferative activity against human NCI-H226 cells after 48 hrs by sulforhodamine B assay; assay type: functional; settings: NCI-H226, 48 h
[24] = Antiproliferative activity against human BT549 cells after 48 hrs by sulforhodamine B assay; assay type: functional; settings: BT-549, 48 h
[25] = Antiproliferative activity against human 786-0 cells after 48 hrs by sulforhodamine B assay; assay type: functional; settings: 786-0, 48 h
[26] = tested on: MDA-MB-231; experiment: Effect on cell cycle regulatory protein in human MDA-MB-231 cells assessed as cdc2 level at 5 uM after 48 hrs by Western blot analysis relative to control; assay type: functional
[27] = tested on: MDA-MB-231; experiment: Effect on cell cycle regulatory protein in human MDA-MB-231 cells assessed as p21 level at 10 uM after 48 hrs by Western blot analysis relative to control; assay type: functional
[28] = Antiproliferative activity against human UACC257 cells after 48 hrs by sulforhodamine B assay; assay type: functional; settings: UACC-257, 48 h
[29] = Antiproliferative activity against human LOXIMVI cells after 48 hrs by sulforhodamine B assay; assay type: functional; settings: LOX IMVI
[30] = Antiproliferative activity against human NCI-H522 cells after 48 hrs by sulforhodamine B assay; assay type: functional; settings: NCI-H522, 48 h
[31] = Antiproliferative activity against human HCT116 cells after 48 hrs by sulforhodamine B assay; assay type: functional; settings: HCT-116, 48 h
[32] = Antiproliferative activity against human UO31 cells after 48 hrs by sulforhodamine B assay; assay type: functional; settings: UO-31, 48 h
[33] = Antiproliferative activity against human DU145 cells after 48 hrs by sulforhodamine B assay; assay type: functional; settings: DU-145, 48 h
[34] = Cytotoxicity against human MDA-MB-231 cells assessed as inhibition of cell viability at 5 uM after 48 hrs by MTT assay relative to control; assay type: functional; settings: MDA-MB-231, 48 h
[35] = Cytotoxicity against human MDA-MB-231 cells assessed as inhibition of cell viability at 5 uM after 24 hrs by MTT assay relative to control; assay type: functional; settings: MDA-MB-231, 24 h
[36] = read-out: LC50 (the source's name)

C=C1c2c(C)nn(-c3ccc(C#CCO[C@@H]4O[C@H](CO)[C@@H](O)[C@H](O)[C@H]4O)cc3)c2N(C)C23CC1C1(C)c4c(C)nn(-c5ccc(C#CCO[C@@H]6O[C@H](CO)[C@@H](O)[C@H](O)[C@H]6O)cc5)c4N(C)C(C)(CC12)C3 (some centres undefined)
GI50 [1]: 1.76 µM | TGI [1]: 3.39 µM | CC50 [1, 36]: 6.55 µM | inhibition at 10 µM [2]: 80% | GI50 [3]: 1.44 µM | TGI [3]: 2.9 µM | CC50 [3, 36]: 5.84 µM | Activity [4]: 4% | GI50 [5]: 1.67 µM | TGI [5]: 3.77 µM | CC50 [5, 36]: 8.5 µM | GI50 [6]: 1.57 µM | TGI [6]: 3.45 µM | Activity [7]: 18.7% | GI50 [8]: 1.87 µM | TGI [8]: 3.66 µM | CC50 [8, 36]: 7.17 µM | inhibition [9]: Active | GI50 [10]: 5.43 µM | TGI [10]: 47 µM | CC50 [10, 36]: 100 µM | GI50 [11]: 1.69 µM | TGI [11]: 3.85 µM | CC50 [11, 36]: 8.77 µM | Activity [12]: 24.4% | Activity [13]: 74% | GI50 [14]: 1.89 µM | TGI [14]: 6.75 µM | CC50 [14, 36]: > 100 µM | Activity [15]: Active | GI50 [16]: 1.62 µM | TGI [16]: 3.52 µM | CC50 [16, 36]: 7.63 µM | GI50 [17]: 1.38 µM | TGI [17]: 2.71 µM | CC50 [17, 36]: 5.31 µM | GI50 [18]: 1.47 µM | TGI [18]: 2.88 µM | CC50 [18, 36]: 5.63 µM | GI50 [19]: 1.68 µM | TGI [19]: 9.94 µM | CC50 [19, 36]: 31.8 µM | fold change (FC) [20]: 0.2 | GI50 [21]: 2.33 µM | TGI [21]: 6.59 µM | CC50 [21, 36]: 100 µM | GI50 [22]: 1.68 µM | TGI [22]: 4.09 µM | CC50 [22, 36]: 9.98 µM | GI50 [23]: 1.62 µM | TGI [23]: 3.7 µM | CC50 [23, 36]: 8.46 µM | GI50 [24]: 1.3 µM | TGI [24]: 2.97 µM | CC50 [24, 36]: 6.77 µM | GI50 [25]: 2.66 µM | TGI [25]: 7.78 µM | CC50 [25, 36]: 29.6 µM | fold change (FC) [26]: 1.5 | fold change (FC) [27]: 2 | GI50 [28]: 1.82 µM | TGI [28]: 4.56 µM | CC50 [28, 36]: 15.4 µM | GI50 [29]: 1.37 µM | TGI [29]: 2.79 µM | CC50 [29, 36]: 5.69 µM | GI50 [30]: 1.67 µM | TGI [30]: 3.26 µM | CC50 [30, 36]: 6.37 µM | GI50 [31]: 1.27 µM | TGI [31]: 2.97 µM | GI50 [32]: 2.83 µM | TGI [32]: 10.1 µM | CC50 [32, 36]: 31.8 µM | GI50 [33]: 1.97 µM | TGI [33]: 5.16 µM | CC50 [33, 36]: 17.3 µM | inhibition at 5 µM [34]: 68% | inhibition at 5 µM [35]: 65%
